# Data: US8183296B2, “Pesticide phenyloxy substituted phenylamidine derivatives” (Bayer Cropscience AG, priority 2005, dated 2012)
# Key:
# [1] = logP by HPLC on reversed-phase column (C 18), EEC Directive 79/831 Annex V.A8; type: physicochemical
# [2] = test system: Sphaerotheca fuliginea; assay: In vivo protective test on Sphaerotheca fuliginea (cucumbers); settings: Podosphaera fuliginea, topical, 168 h, 100 ppm of active ingredient, evaluated 7 days after inoculation, read-out: efficacy
# Experimental: In Vivo Protective Test on Sahaerotheca fuliginea (Cucumbers)
# (§1) To produce a suitable preparation of active compound, 1 part by weight of active compound is mixed with the stated amounts of solvent and emulsifier, and the concentrate is diluted with water to the desired concentration.
# To test for protect activity, young plants are sprayed with the preparation of active compound at the stated rate of application. After the spray coating has dried on, the plants are inoculated with an aqueous spore suspension of Sphaerotheca fuliginea. The plants are then placed in a greenhouse at approximately 23° C. and a relative atmospheric humidity of approximately 70%.
# (§2) The test is evaluated 7 days after the inoculation. 0% means an efficacy which corresponds to that of the control, while an efficacy of 100% means that no disease is observed.
# [3] = test system: Alternaria solani; assay: In vivo protective test on Alternaria solani (leaf spot of tomato); settings: topical, 168 h, 500 ppm of active ingredient, evaluated 7 days after inoculation, read-out: efficacy
# Experimental: In Vivo Protective Test on Alternaria solani (Leaf Spot of Tomato)
# as §1
# To test for protective activity, young plants are sprayed with the preparation of active compound at the stated rate of application. After the spray coating has dried on, the plants are inoculated with an aqueous spore suspension of Alternatia solani. The plants remain for one day in an incubation cabinet at approximately 20° C. and a relative atmospheric humidity of 100%. Then the plants are placed in an incubation cabinet at approximately 20° C. and a relative atmospheric humidity of 96%.
# The test is evaluated 7 days after the inoculation. 0% means an efficacy which corresponds to that of the control while an efficacy of 100% means that no disease is observed.
# [4] = test system: Puccinia recondita f. Sp. tritici; assay: In vivo preventive test on Puccinia recondita f. Sp. tritici (wheat brown rust); settings: topical, 240 h, 1000 ppm of active ingredient, evaluated 10 days after inoculation, read-out: efficacy
# Experimental: In Vivo Preventive Test on Puccinia recondita f. Sp. tritici (Wheat Brown Rust)
# as §1
# To test for preventive activity, young plants are […]. After the spray coating has dried on, the plants are sprayed with the preparation of active compound at the stated rate of application. The plants remain for 24 hours in an incubation cabinet at 20° C. and a relative atmospheric humidity of 100%.
# The plants are placed in a greenhouse at a temperature of approximately 20° C. and a relative atmospheric humidity of approximately 80% to promote the development of rust pustules.
# The test is evaluated 10 days after the inoculation. 0% means an efficacy which corresponds to that of the control, while an efficacy of 100% means that no disease is observed.
# [5] = test system: Aedes aegypti larvae; assay: In vivo protective test on Aedes aegypti (AEDSAE U)
# Experimental: In Vivo Protective Test on Aedes Aegypti (AEDSAE U)
# To produce a suitable preparation of the active compound, the active compound is mixed with the stated amount of solvent, and the concentrate is diluted with staining water to the desired concentration.
# Aedes aegypti larvae are pipetted with a preparation of active ingredient of the desired concentration.
# After the specified period of time, mortality in % is determined. 100% means that all larvae have been killed, a 0% means that none of the larvae have been killed.
# [6] = test system: Podosphaera leucotricha; assay: In vivo protective test on Podosphaera leucotricha (apples); settings: topical, 240 h, 100 ppm of active ingredient, evaluated 10 days after inoculation, read-out: efficacy
# Source text: In Vivo Protective Test on Podosphaera leucotricha (Apples) [table] […] To test for protective activity, young plants are sprayed with the preparation of active compound at the stated rate of application. After the spray coating has dried on, the plants are inoculated with an aqueous spore suspension of the causal agent of apple mildew (Podosphaera leucotricha).
# [7] = logP by HPLC on reversed-phase column (C 18), EEC Directive 79/831 Annex V.A8; type: physicochemical; settings: reversed-phase HPLC column (C 18), C 18, 40° C., 0.1% aqueous formic acid and acetonitrile, read-out: logPa
# Experimental: Temperature: 40° C.; Mobile phases: 0.1% aqueous formic acid and acetonitrile; linear gradient from 10% acetonitrile to 90% acetonitrile.
# Calibration was carried out using unbranched alkan-2-ones (comprising 3 to 16 carbon atoms) with known logP values (determination of the logP values by the retention times using linear interpolation between two successive alkanones).
# [8] = test system: Erysiphe graminis f.sp. hordei; assay: In vivo preventive test on Erysiphe graminis (powdery mildew on barley); settings: Blumeria graminis, topical, 168 h, 1000 ppm of active ingredient, evaluated 7 days after inoculation, read-out: efficacy
# Experimental: In Vivo Preventive Test on Erysiphe gramini (Powdery Mildew on Barley)
# To produce a suitable preparation of active compound, 1 part by weight of active compound or active compound combination is mixed with the stated amounts of solvent and emulsifier, and the concentrate is diluted with water to the desired concentration.
# To test for preventive activity, young plants are sprayed with the preparation of active compound or active compound combination at the stated rate of application.
# After the spray coating has dried on, the plants are dusted with spores of Erysiphe graminis f.sp. hordei
# The plants are placed in a greenhouse at a temperature of approximately 20° C. and a relative atmospheric humidity of approximately 80% to promote the development of mildew pustules.
# as §2
# [9] = test system: mosquito larvae (Aedes aegypti); assay: In vivo protective test on Aedes aegypti (AEDSAE MO); settings: Aedes aegypti third larvae
# Experimental: In Vivo Protective Test on Aedes aegypti (AEDSAE MO)
# To produce a suitable preparation of active compound, 1 part by weight of active compound is mixed with the stated amount of solvent, and the concentrate is diluted with water to the desired concentration.
# 10 to 20 third mosquito larvae (Aedes aegypti) are added to the well and incubated.
# After the specified period of time, mortality in % is determined. 100% means that all of the larvae have been killed; 0% means that none of the larvae have been killed.
# [10] = test system: eggs of cotton bollworm (Heliothis virescens); assay: In vivo protective test on Heliothis virescens (HELIVI U); settings: soybean leaf sections infested with Heliothis virescens eggs
# Source text: In Vivo Protective Test on Heliothis virescens (HELIVI U)
# To produce a suitable preparation of the active compound, 1 part by weight of active compound is mixed with the stated amount of solvent and emulsifier, and the concentrate is dilutes with emulsifier-containing water to the desired concentration.
# Soybean (Glycine max.) leaf sections are sprayed with a preparation of the active ingredient of the desired concentration. Once dry, the leaf sections are infested with eggs of cotton bollworm (Heliotis virescens).
# After the specified period of time, mortality in % is determined. 100% means that all eggs have been killed and 0% means that none of the eggs have been killed.
SMILES,log P (pH 2.3) [1],chromatographic logP [7],pest or weed control at 100 ppm [2],pest or weed control at 500 ppm [3],pest or weed control at 1000 ppm [4],activity (mortality of larvae) [5],pest or weed control at 100 ppm [6],pest or weed control at 1000 ppm [8],activity (mortality of larvae) [9],activity (mortality of eggs) [10]
Cc1cc(Oc2ccc(Cl)c(C(C)(C)C)c2)c(Cl)cc1N [4-(3-t-butyl-4-chlorohenoxy)-5-chloro-2-methylaniline],5.68,,,,,,,,,
"Cc1cc([N+](=O)[O-])c(C)cc1Oc1ccc(Cl)c(C(C)(C)C)c1 [4-(3-t-butyl-4-chlorphenoxy)-2,5-dimethylnitrobenzene]",6.32,,,,,,,,,
"Cc1cc(Oc2ccc(Cl)c(C(C)(C)C)c2)c(C)cc1N [4-(3-t-butyl-4-chlorphenoxy)-2,5-xylidine]",4.38,,,,,,,,,
Cc1cc(Oc2ccc(Cl)c(C(C)(C)C)c2)c(Cl)cc1[N+](=O)[O-] [4-(3-t-butyl-4-chlorphenoxy)-5-chloro-2-methylnitrobenzene],6.32,,,,,,,,,
"CCN(C)C=Nc1cc(Cl)c(Oc2ccc(Cl)c(C(C)(C)C)c2)cc1C [Example 1, N-Ethyl-N-methyl-N′-[4-(3-t-butyl-4-chlorphenoxy)-5-chloro-2-methylphenyl]formamidine]",2.80,,,,,,,,,
"CCN(C)C=Nc1cc(C)c(Oc2ccc(Cl)c(C(C)(C)C)c2)cc1C [Example 2, N-Ethyl-N-methyl-N′-[4-(3-t-butyl-4-chlorphenoxy)-2,5-xylyl]formamidine]",3.04,,,,,,,,,
CCN(C)/C=N/c1cc(C)c(Oc2ccc(Cl)c(C(C)C)c2)cc1C [Example 3],,2.75,≥ 70%,≥ 70%,≥ 70%,good activity,≥ 70%,≥ 70%,,
Cc1cc(Oc2ccc(Cl)c(C(C)(C)C)c2)c(C)cc1/N=C/N(C)C(C)C [Example 9],,3.42,≥ 70%,≥ 70%,≥ 70%,,≥ 70%,≥ 70%,,
CCc1cc(Oc2cc(C)c(/N=C/N(C)CC)cc2Cl)ccc1Cl [Example 13],,2.78,≥ 70%,≥ 70%,≥ 70%,,≥ 70%,≥ 70%,,
CCCN(C)/C=N/c1cc(C)c(Oc2ccc(Cl)c(CC)c2)cc1C [Example 14],,2.76,≥ 70%,≥ 70%,≥ 70%,,≥ 70%,≥ 70%,,
Cc1cc(Oc2ccc(Br)c(C(C)C)c2)c(C)cc1/N=C/N(C)C(C)C [Example 18],,3.34,≥ 70%,≥ 70%,≥ 70%,,≥ 70%,≥ 70%,good activity,good activity

# The next lines start with results.
log P (pH 2.3) [1],chromatographic logP [7],SMILES,pest or weed control at 100 ppm [2],pest or weed control at 500 ppm [3],pest or weed control at 1000 ppm [4],activity (mortality of larvae) [5],pest or weed control at 100 ppm [6],pest or weed control at 1000 ppm [8],activity (mortality of larvae) [9],activity (mortality of eggs) [10]
,2.91,CCCN(C)/C=N/c1cc(C)c(Oc2ccc(Br)c(C(C)C)c2)cc1C [Example 17],≥ 70%,≥ 70%,≥ 70%,,≥ 70%,≥ 70%,,
,3.04,CCN(C)/C=N/c1cc(C)c(Oc2ccc(Br)c(C(C)C)c2)cc1C [Example 19],≥ 70%,≥ 70%,≥ 70%,,≥ 70%,≥ 70%,,
,2.95,CCN(C)/C=N/c1cc(Cl)c(Oc2ccc(Cl)c(C(C)C)c2)cc1C [Example 20],≥ 70%,≥ 70%,≥ 70%,,≥ 70%,≥ 70%,,
,3.03,CCCN(C)/C=N/c1cc(Cl)c(Oc2ccc(Cl)c(C(C)C)c2)cc1C [Example 21],≥ 70%,≥ 70%,≥ 70%,,≥ 70%,≥ 70%,,
,3.17,Cc1cc(Oc2ccc(Cl)c(C(C)C)c2)c(Cl)cc1/N=C/N(C)C(C)C [Example 22],≥ 70%,≥ 70%,≥ 70%,,≥ 70%,≥ 70%,,
,3.27,CCCN(C)/C=N/c1cc(Cl)c(Oc2ccc(Cl)c(C(C)(C)C)c2)cc1C [Example 25],≥ 70%,≥ 70%,≥ 70%,,≥ 70%,≥ 70%,,
,3.02,CCN(C)/C=N/c1cc(Cl)c(Oc2ccc(Cl)c(C(C)(C)C)c2)cc1C [Example 26],≥ 70%,≥ 70%,≥ 70%,,≥ 70%,≥ 70%,,
,2.74,Cc1cc(Oc2ccc(Cl)c(C(C)C)c2)c(C)cc1/N=C/N(C)C(C)C [Example 28],≥ 70%,≥ 70%,≥ 70%,,≥ 70%,≥ 70%,,
,2.84,CCN(C)/C=N/c1cc(Cl)c(Oc2ccc(Br)c(C(C)C)c2)cc1C [Example 30],≥ 70%,≥ 70%,≥ 70%,,≥ 70%,≥ 70%,,
,2.75,CCc1cc(Oc2cc(C)c(/N=C/N(C)C(C)C)cc2C)ccc1Cl [Example 32],≥ 70%,≥ 70%,≥ 70%,,≥ 70%,≥ 70%,,
